# Where “and” joins values, the source holds several entries; their conditions need not be identical. Equal values may be shown once.
# Molecular target: T1, MyD88^TIR (Homo sapiens, UniProt Q99836)
# T1 construct: MyD88 (residues 148–296); 6xHis; made in house; host or cells: E. coli BL21 (DE3)
# Assay: T‐Surf phage library (P8 and P3) selection against MyD88^TIR, four rounds, NGS read counts
# Format: binding
# Conditions: for P8_MyD88 Rank (after) / P8_MyD88 Rank (before): P8 library; for Population: 4th round of selection against MyD88 TIR, share of NGS reads; for P3_MyD88 Rank (after) / P3_MyD88 Rank (before): P3 library
# In short: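 Coat TIR domain 5 µg mL^−1 overnight; block 0.2% BSA/PBS 1 h, 4 °C; add phage library 1 h, RT; wash ×4 PBS/0.5% Tween‐20; elute 100 mM HCl, neutralize Tris; amplify in TG1, PEG‐precipitate. Repeat to round 4; barcode PCR, NovaSeq, count reads.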
# [1] = P8_MyD88: rank by NGS read count after grouping
# [2] = P8_MyD88: rank by NGS read count before grouping
# [3] = P3_MyD88: rank by count after grouping
# [4] = P3_MyD88: rank by count before grouping
# [5] = selection against MyD88, rank by count after grouping
# [6] = selection against MyD88, rank by count before grouping
# [7] = P8_MyD88: rank by count after grouping
# [8] = P8_MyD88: rank by count before grouping
# [9] = P8_MyD88 pool: P8 T-Surf phage library
# [10] = 4R selection against MyD88, rank after grouping
# [11] = 4R selection against MyD88, rank before grouping
# [12] = selection against MyD88 TIR, rank by count after grouping
# [13] = selection against MyD88 TIR, rank by count before grouping
# [14] = selection against MyD88, rank after grouping
# [15] = selection against MyD88, rank before grouping
# [16] = P3_MyD88 pool: P3 T-Surf phage library
# T1 sequence (Q99836 148-296): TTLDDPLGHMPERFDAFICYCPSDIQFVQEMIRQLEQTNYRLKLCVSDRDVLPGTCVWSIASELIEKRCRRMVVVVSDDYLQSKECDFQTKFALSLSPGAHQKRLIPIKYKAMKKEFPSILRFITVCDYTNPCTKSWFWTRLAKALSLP
sequence,measurement,setting,value
PQDLGWYYERLVSLIL,Rank (after),[1],888
same,Rank (before),[2],3421
SSFREGLWRLQELSKT,Rank (after),[3],158
same,Rank (before),[4],3187
ASSPWALYELVEILTA,P8_MyD88 Rank (after),[5],683
same,P8_MyD88 Rank (before),[6],2333
ELDFSHFWLFDGHATGAA,Rank (after),[1],1003
same,Rank (before),[2],3187
IVQALWSKVHHSLTLF,Rank (after),[7],145
same,Rank (before),[8],157
same,Population,[9],0.01%
SRFREGLWPLLELSKK,Rank (after),[3],156
same,Rank (before),[4],3107
WALRELEAILQSFQLS,Rank (after),[7],142
same,Rank (before),[8],154
same,Population,[9],0.01%
SSFREGLWRLMALIKK,P3_MyD88 Rank (after),[10],600
same,P3_MyD88 Rank (before),[11],3188
SSFREGLWRLPELLR,Rank (after),[3],101
same,Rank (before),[4],402
YAFTGHLHRYLVQPGESVC,Rank (after),[3],456
same,Rank (before),[4],1515
NYATSRWALDELVRIF,P8_MyD88 Rank (after),[12],227
same,P8_MyD88 Rank (before),[13],419
SREYASCSWALTELVH,P3_MyD88 Rank (after),[10],647
same,P3_MyD88 Rank (before),[11],3106
PEKDNGGEIAFINNLV,P3_MyD88 Rank (after),[14],547
same,P3_MyD88 Rank (before),[15],2710
NQWRNALTAAANLSGW,Population,[16],0.00437% and 0.00378% and 0.0032%
same,P8_MyD88 Rank (after),[5],734
same,P8_MyD88 Rank (before),[6],3881
DPLALEWYYERPFSQM,P8_MyD88 Rank (after),[14],559
same,P8_MyD88 Rank (before),[15],2612
DPQDLDWFYERREPA,P8_MyD88 Rank (after),[10],662
same,P8_MyD88 Rank (before),[11],2790
SSTWALDELERILEYM,P8_MyD88 Rank (after),[12],198
same,P8_MyD88 Rank (before),[13],294
YASSSWYRFELVDILW,Rank (after),[1],973
same,Rank (before),[2],1874
EWLREQLRSARKERLP,Rank (after),[3],442
same,Rank (before),[4],2126
RSSAFQQQLVMALKAQ,P3_MyD88 Rank (after),[10],643
same,P3_MyD88 Rank (before),[11],2616
YLMWPQEEEEIPLFWH,P8_MyD88 Rank (after),[12],257
same,P8_MyD88 Rank (before),[13],447
LKVESWRQALEKAGKL,P8_MyD88 Rank (after),[12],211
same,P8_MyD88 Rank (before),[13],326
VQWADPWFWDKLAYEK,Rank (after),[1],1016
same,Rank (before),[2],2215
DPQDLGWFYERLISQILK,P8_MyD88 Rank (after),[10],624
same,P8_MyD88 Rank (before),[11],2726
LKWGGSCLSIKLAYAM,Rank (after),[3],445
same,Rank (before),[4],2411
PQDLDWFYERLVSLL,Rank (after),[7],101
same,Rank (before),[8],120
same,Population,[9],0.0189%
NDLVHVWSSKANSLVG,Population,[16],0.00495%
RGFHWTEWENFVDIED,Rank (after),[1],968
same,Rank (before),[2],3399
WTLNELQTILNILDIG,P8_MyD88 Rank (after),[10],656
same,P8_MyD88 Rank (before),[11],1656
YAFTGHLPRDLVLRGG,P3_MyD88 Rank (after),[14],491
same,P3_MyD88 Rank (before),[15],1493
SQRADCSWEWQKMLYP,Rank (after),[1],953
same,Rank (before),[2],1659
YTALTYSGFHTFRDNV,P3_MyD88 Rank (after),[12],276
same,P3_MyD88 Rank (before),[13],1642
MFGGDPLHDFLDLISL,P8_MyD88 Rank (after),[10],592
same,P8_MyD88 Rank (before),[11],3655
HFETTEGNFYKFFLFF,Rank (after),[7],165
same,Rank (before),[8],187
same,Population,[9],0.00694%
DPQDLDWFYERLISRILQ,P8_MyD88 Rank (after),[14],549
same,P8_MyD88 Rank (before),[15],2787
WDFASNMEQLWERLYY,Rank (after),[1],1014
same,Rank (before),[2],1625
DPQELDWYYERLVSLF,P8_MyD88 Rank (after),[12],241
same,P8_MyD88 Rank (before),[13],2986
ELDFSHFWLFDGHATGEA,Population,[9],0.0177%
DPHDLQWLYERLVSLI,Rank (after),[1],985
same,Rank (before),[2],2634
LGYHWLNWESFVGIED,P8_MyD88 Rank (after),[14],547
same,P8_MyD88 Rank (before),[15],3345
DPQDTDWFYERLVSMF,P8_MyD88 Rank (after),[14],499
same,P8_MyD88 Rank (before),[15],2976
WDFSGNMKQALDRLCY,P8_MyD88 Rank (after),[10],613
same,P8_MyD88 Rank (before),[11],1571
DSQDLDWLYERLVSLL,P8_MyD88 Rank (after),[10],621
same,P8_MyD88 Rank (before),[11],2497
HPWRNTLTAAANLNGR,P3_MyD88 Rank (after),[14],546
same,P3_MyD88 Rank (before),[15],2804
DLYDILYLYGRHTIFV,Rank (after),[1],881
same,Rank (before),[2],2584
VRHTFAGYLYDALNRL,Rank (after),[7],141
same,Rank (before),[8],155
same,Population,[9],0.01%
SWYLDEVAKIIDAMKE,Rank (after),[7],133
same,Rank (before),[8],144
same,Population,[9],0.0116%
DPQDLDWFYERLLSLS,Rank (after),[7],422
same,Rank (before),[8],2764
DPQDPDWCYERLVSLI,P8_MyD88 Rank (after),[14],522
same,P8_MyD88 Rank (before),[15],2962
FLSYRSLEKRFGPIGP,Rank (after),[3],190
same,Rank (before),[4],1344
LAIIGLIGSILWALK,P8_MyD88 Rank (after),[12],210
same,P8_MyD88 Rank (before),[13],492
FFWMQLRSLLGTPGGL,P8_MyD88 Rank (after),[12],194
same,P8_MyD88 Rank (before),[13],252
PSEVRKQTGSLAKALCD,P3_MyD88 Rank (after),[14],488
same,P3_MyD88 Rank (before),[15],2753
SSFSEGLWRLLELRKK,P3_MyD88 Rank (after),[12],191
same,P3_MyD88 Rank (before),[13],3251
YASYDDNDYYWMTHVLLRHM,P8_MyD88 Rank (after),[5],771
same,P8_MyD88 Rank (before),[6],1816
DPQVLEWFYERLVSMF,P8_MyD88 Rank (after),[10],658
same,P8_MyD88 Rank (before),[11],2657
PQEQVWFYERQVSLIV,P8_MyD88 Rank (after),[14],533
same,P8_MyD88 Rank (before),[15],3500
YTALTNSGFLSFRDTD,Rank (after),[3],428
same,Rank (before),[4],1661
LEANDSLFWDRLIRMIE,P8_MyD88 Rank (after),[10],635
same,P8_MyD88 Rank (before),[11],3374
IDDDHLTYLVRLIEAL,Rank (after),[7],473
same,Rank (before),[8],3638
DSLFWDRLLYSLHVT,P8_MyD88 Rank (after),[12],219
same,P8_MyD88 Rank (before),[13],355
YAASPWWFDELVHILW,P8_MyD88 Rank (after),[5],678
same,P8_MyD88 Rank (before),[6],1722
SELRVVDDGSVSPRET,P3_MyD88 Rank (after),[5],741
same,P3_MyD88 Rank (before),[6],3045
YTALTNSSFHTFRDNH,P3_MyD88 Rank (after),[14],514
same,P3_MyD88 Rank (before),[15],1697
DPQDLDWFYDRLLYSLHVTE,Rank (after),[7],420
same,Rank (before),[8],1088
LVAHEISKKLKIFATM,P3_MyD88 Rank (after),[5],709
same,P3_MyD88 Rank (before),[6],2288
NQCRNALTAAANLSGC,Rank (after),[3],149
same,Rank (before),[4],3467
WDFGTAGKNPGSAWHH,Rank (after),[1],910
same,Rank (before),[2],1573
YYDSRWALDELLQILHARELF,P8_MyD88 Rank (after),[12],232
same,P8_MyD88 Rank (before),[13],437
VTSSWALEELRHIMEL,Rank (after),[1],947
same,Rank (before),[2],2269
NYASSSWALDELLRILY,Rank (after),[7],155
same,Rank (before),[8],238
DWVCDYLLPDREGPAG,Rank (after),[1],984
same,Rank (before),[2],2474
WALIELRTIMELWSGN,P8_MyD88 Rank (after),[12],220
same,P8_MyD88 Rank (before),[13],377
FDASTWWLRELLQIA,Rank (after),[7],413
same,Rank (before),[8],814

# From publication PMC11714206, “Massively Parallel Screening of Toll/Interleukin‐1 Receptor (TIR)‐Derived Peptides Reveals Multiple Toll‐Like Receptors (TLRs)‐Targeting Immunomodulatory Peptides” (Advanced Science, 2024)
